Key:
[1] = test system: B cell activation in rat whole blood; test: Determination of B cell activity in whole blood of rats (anti-rat IgD induced); format: cell-based; settings: anti-rat immunoglobulin D, 18 hours, flow cytometry B220/CD86, read-out: IC50 value, inhibiting B cell activation in rat whole blood
Method: In the determination of the compound activity, the collected peripheral whole blood of rat was added to a 96 well plate at 80 μL/well and cultured in a 5% CO2, 37° C. cell incubator. […]
On the second day, the 96-well plates were taken out and the flow cytometry antibody mixture (the final concentration of anti-rat B220PE antibody was 1 μg/mL and the final concentration of anti-rat CD86 FITC antibody was 1 μg/mL) diluted with PBS was added to each well of plate, which were incubated for 30 minutes in the dark, and then 50 […] of blood from each well was pipetted to the freshly prepared 500 μL of lysis buffer to lyse red blood cells. The plates were shaken for 20 minutes, centrifuged to remove the supernatant, then washed, fixed, and detected on a flow cytometer.
The B cell activation in the sample was determined by flow dyeing method. […]
The inhibition ratio is calculated as follows: inhibition ratio (%)=100%−{(treating well for the test compound−negative control treating well)/(control treating well for anti-rat immunoglobulin D−negative control treating well)}×100%, wherein, […]

[2] = test system: ITP mice (anti-mouse CD41 antibodies); test: Idiopathic thrombocytopenic purpura induced by anti-CD41 antibody in mice; format: in vivo; settings: 8 hours after modeling, single oral dose
Method: Male C57BL/6 mice were purchased from Shanghai Lingchang Biotechnology Co., Ltd. (certificate number 20180003011079, initial body weight of 18-20 grams), and were randomly grouped according to Table 4, with 8 mice in each group. […] When modeling, each mouse was intraperitoneally injected with 200 μL of PBS solution containing 2 μg of anti-mouse CD41 antibodies (BD, Cat #: 553487, Lot #: 7026765).
Eight hours and twenty-four hours after modeling, the whole blood was collected and placed in a centrifuge tube coated with 10% citrate-phosphate-dextrose-adenine (CPDA), and the level of platelets (PLT) in the whole blood was measured by an XT-2000i (SYSMEX) automatic blood analyzer (Shanghai Laboratory Animal Research Centre Sino-British SIPPR/B & K Lab Animal Ltd).
The average level of platelets in peripheral blood was analyzed with Graphpad statistical software by one way ANOVA followed by Fisher LSD multiple comparison test, and the p value was calculated, wherein *p<0.05 indicated a statistically significant difference compared with the vehicle control group, **p<0.01 indicated a statistically extremely significant difference compared with the vehicle control group, and ##p<0.01 indicated a statistically extremely significant difference compared with the normal group. […]

Q: What does the source list for `C[C@H]1CN(C2COC2)C[C@H](C)N1c1ccc(Nc2cc(-c3ccnc(-n4ccn5c6c(cc5c4=O)CC(C)(C)C6)c3CO)cn(C)c2=O)nc1` [Compound 1, 2-(5-((5-((2S,6S)-2,6-dimethyl-4-(oxetan-3-yl)piperazin-1-yl)pyridin-2-yl)amino)-3′-(hydroxymethyl)-1-methyl-6-oxo-1,6-dihydro-[3,4′-bipyridin]-2′-yl)-7,7-dimethyl-7,8-dihydro-2H-cyclopenta[4,5]pyrrolo[1,2-a]pyrazin-1(6H)-one]?
A: IC50 [1]: 1 nM; minimum effective dose [2]: 0.04 mg/kg

Source: patent US11655254B2, “Substituted piperazines as BTK inhibitors” (HUTCHISON MEDIPHARMA LIMITED, priority 2020, dated 2023)
